Measurements as given in PMC6278073 (BMC Pharmacology & Toxicology, 2018).

How the values were obtained:
in vivo [1] = assay: in vivo
Description: PK studies in animals were approved by the Institutional Animal Care and Use Committee (IACUC) of the institution performing the study. […] Twenty-four animals were used for each route of administration and both the genders were randomly included (n = 3 mice per time point). The intravenous dose was administered via tail vein injection at an injection volume of 5 ml/kg, and the oral dose was given via gavage at a dose volume of 10 ml/kg. […] Mice were sacrificed with carbon dioxide asphyxiation following bleeds. Plasma was prepared and stored at -80 °C until bioanalysis.
(§1) Sample preparation and bioanalysis was performed at the University of Cincinnati. For extraction, 50 μl of plasma samples were transferred to glass tubes. […] The extraction solvent was separated by centrifugation. […] Collected fractions were evaporated using centrifugal evaporator.
(§2) Analysis of extracted samples was performed by an LC-MS/MS method. […] The column was Synergi™ 4 μm Polar-RP 50 × 2.00 mm (Phenomenex) run at a flow rate of 400 μl/min with an injection volume of 5 μl (partial loop). […] The analysis was performed using a Thermo Scientific LTQ-FT™ mass spectrometer operated in positive-ion electrospray mode.
(§3) Pharmacokinetic analysis was performed on either mean plasma concentration-time data (mouse) or on the individual plasma concentration-time data (prairie dog, guinea pig, and monkey) employing Phoenix® WinNonlin 6.4®. PK parameters such as maximum plasma concentration (Cmax), the time corresponding to Cmax (Tmax), terminal half-life (T1/2), the volume of distribution (Vd) and clearance (CL) were calculated by non-compartmental methods and presented as the arithmetic mean ± standard deviation (SD). The bioavailability (F) was estimated by dividing the mean dose-normalized area under the plasma concentration-time curve from time 0 extrapolated to infinity (AUCinf) upon oral dose by the mean dose-normalized AUCinf upon intravenous dose.

in vivo [2] = assay: in vivo; remark: listed apart in the source
Description: (§4) Prairie dog PK studies were performed at Centers for Disease Control and Prevention (CDC, Atlanta). […] The animals were collected in Lubbock, TX. All animals are given full physical examination by a veterinarian prior to being shipped to CDC. […] For each blood sample collection, prairie dogs were anesthetized with 5% isoflurane gas and maintained with 1–3% isoflurane during sample collection through peripheral veins. Plasma was prepared and stored at -70 °C until bioanalysis.
as §1, §2, §3

in vivo [3] = details: male, Hartley, guinea pig, iv, 10 mg/kg
Description: Male Hartley guinea pigs (450–650 g) were procured from Charles River. Nine animals were used, three (n = 3) for each route of administration. The intravenous dose was given via jugular vein cannula, and the oral dose was given via gavage. […] Plasma was prepared and stored at -80 °C until bioanalysis.
as §1, §2, §3

in vivo [4] = assay: in vivo; remark: listed apart in the source
Description: Six Animals (3.5 kg) were procured from Charles River, three (n = 3) for each route of administration. Animals were fasted overnight before dosing and at least 1 h following dose administration. The intravenous dose was given via a saphenous vein at an injection volume of 1 ml/kg, and oral dosing was performed via gavage at a dose volume of 5 ml/kg. […] Plasma was prepared and stored at-70 °C until bioanalysis.
as §1, §2, §3

[5] = prairie dogs
Description: as §4
The formulation used in previously reported PK studies have varied based on the animal model. […] For their intravenous PK study in dogs, Solutol® HS 15 was used instead of cremophor [13].

[6] = nilotinib, 7 mg twice-daily, 20 mg once-daily, 20 mg twice-daily for 7 days, prairie dogs
Description: as §4

plasma protein = details: nilotinib, all the preclinical species and humans; cited from earlier work
[7] = nilotinib, cited from earlier work
[8] = nilotinib; cited from earlier work
[9] = both, C57BL/6, mouse, in vivo, iv, 10 mg/kg
[10] = both, C57BL/6, mouse, in vivo, po, 10 mg/kg
[11] = male, dog, in vivo, iv, 10 mg/kg
[12] = male, dog, in vivo, po, 30 mg/kg
[13] = male, dog, in vivo, po, 10 mg/kg
[14] = male, dog, in vivo, po, 20 mg/kg
[15] = nilotinib, IV 10 mg/kg, prairie dogs, mean ± SD
[16] = cynomolgus monkey, in vivo, iv, 10 mg/kg
[17] = cynomolgus monkey, in vivo, po, 10 mg/kg

For `Cc1ccc(NC(=O)c2ccc(CN3CCN(C)CC3)cc2)cc1Nc1nccc(-c2cccnc2)n1` [imatinib], which AUC(0-inf) (in vivo [1]; [9]) is on record?
Its AUC(0-inf) is 4520 ng·h/mL.

And the AUC(0-inf) (in vivo [1]; [10])?
Its AUC(0-inf) is 4850 ng·h/mL.

And the Tmax (in vivo [1]; [10])?
Its Tmax is 1 h.

And the Cmax (in vivo [1]; [10])?
Its Cmax is 1470 ng/mL.

What about the bioavailability (in vivo [2]; male, dog, in vivo) of the same molecule?
The bioavailability was roughly 22%.

What about the AUC(0-inf) (in vivo [2]; [11]) of the same molecule?
The AUC(0-inf) was 12600 ng·h/mL.

And the AUC(0-inf) (in vivo [2]; [12])?
Its AUC(0-inf) is 8090 ± 3010 ng·h/mL.

And the Cmax (in vivo [2]; [12])?
Its Cmax is 1680 ± 834 ng/mL.

And the Tmax (in vivo [2]; [12])?
The Tmax was 3 ± 1.15 h.

Which results are given for `Cc1cn(-c2cc(NC(=O)c3ccc(C)c(Nc4nccc(-c5cccnc5)n4)c3)cc(C(F)(F)F)c2)cn1` [nilotinib]?
AUC(0-inf) (in vivo [1]; [9]): 76300 ng·h/mL; MRT (in vivo [1]; [9]): 2.21 h; Vd (in vivo [1]; [9]): 0.29 L/kg; clearance (in vivo [1]; [9]): 2.19 mL/min/kg; half-life (in vivo [1]; [9]): 1.81 h; AUC(0-inf) (in vivo [1]; [10]): 38400 ng·h/mL; Tmax (in vivo [1]; [10]): 0.5 h; half-life (in vivo [1]; [10]): 2.94 h; bioavailability (in vivo [1]; both, C57BL/6, mouse, in vivo, po, 10 mg/kg, Bioavailability, nilotinib, oral 10 mg/kg in NMP/PEG 300 vs IV 10 mg/kg, C57BL/6 mice): 50%; Cmax (in vivo [1]; both, C57BL/6, mouse, in vivo, po, 10 mg/kg, nilotinib, oral 10 mg/kg in NMP/PEG 300, C57BL/6 mice): 18000 ng/mL; Cmax (in vivo [1]; both, C57BL/6, mouse, in vivo, po, 10 mg/kg, nilotinib, oral 10 mg/kg, C57BL/6 mice): ~18000 ng/mL; Time to Cmax after dosing (in vivo [1]; nilotinib, oral 10 mg/kg, C57BL/6 mice): 30 min; bioavailability (in vivo [2]; male, dog, in vivo, nilotinib, oral 20 mg/kg in NMP/PEG 300 vs IV 10 mg/kg, prairie dogs): ~24%; AUC(0-inf) (in vivo [2]; [11]): 57600 ng·h/mL; MRT (in vivo [2]; [11]): 6.7 ± 2.9 h; Vd (in vivo [2]; [11]): 1.16 ± 0.326 L/kg; clearance (in vivo [2]; [11]): 3.17 mL/min/kg; half-life (in vivo [2]; male, dog, in vivo, iv, 10 mg/kg, T1/2, nilotinib, IV 10 mg/kg, prairie dogs, mean ± SD): 6.5 h; AUC(0-inf) (in vivo [2]; [13]): 9330 ± 3630 ng·h/mL; Cmax (in vivo [2]; [13]): 951 ± 255 ng/mL; Tmax (in vivo [2]; [13]): 5.6 ± 2.19 h; half-life (in vivo [2]; male, dog, in vivo, po, 10 mg/kg, Apparent T1/2, nilotinib, oral 10 mg/kg in Avicel/HPMC suspension, prairie dogs, mean ± SD): 3.5 ± 0.6 h; bioavailability (in vivo [2]; male, dog, in vivo, po, 10 mg/kg, nilotinib, oral 10 mg/kg in Avicel/HPMC suspension vs IV 10 mg/kg, prairie dogs): 16%; AUC(0-inf) (in vivo [2]; [14]): 28000 ng·h/mL; Cmax (in vivo [2]; [14]): 1670 ± 315 ng/mL; Tmax (in vivo [2]; [14]): 7.2 ± 1.79 h; half-life (in vivo [2]; male, dog, in vivo, po, 20 mg/kg, Apparent T1/2, nilotinib, oral 20 mg/kg in NMP/PEG 300, prairie dogs, mean ± SD): 7.5 h; bioavailability (in vivo [2]; male, dog, in vivo, po, 20 mg/kg, nilotinib, oral 20 mg/kg in NMP/PEG 300 vs IV 10 mg/kg, prairie dogs): 24%; AUC(0-inf) (in vivo [2]; [15]): 57,551 ± 15,508 ng.hr./ml; CL (in vivo [2]; [15]): 3.17 ± 1.28 mL/min/kg; T1/2 (in vivo [2]; nilotinib, IV 10 mg/kg, prairie dogs, mean ± SD, 10 mg/kg): 6.51 ± 2.97 h; Apparent T1/2 (in vivo [2]; nilotinib, oral 20 mg/kg in NMP/PEG 300, prairie dogs, mean ± SD, 20 mg/kg): 7.57 ± 2.01 h; Vd (in vivo [3]): 37.6 L/kg; clearance (in vivo [3]): 198 mL/min/kg; half-life (in vivo [3]): 2.1 h; AUC(0-inf) (in vivo [4]; [16]): 16100 ng·h/mL; MRT (in vivo [4]; [16]): 8.9 ± 1.1 h; Vd (in vivo [4]; [16]): 5.74 ± 1.78 L/kg; clearance (in vivo [4]; [16]): 10.7 mL/min/kg; half-life (in vivo [4]; cynomolgus monkey, in vivo, iv, 10 mg/kg, T1/2, nilotinib, IV 10 mg/kg, Cynomolgus monkeys, mean ± SD): 7.8 h; AUC(0-inf) (in vivo [4]; [17]): 2100 ± 468 ng·h/mL; Cmax (in vivo [4]; [17]): 410 ± 46 ng/mL; Tmax (in vivo [4]; [17]): 1.67 ± 0.58 h; bioavailability (in vivo [4]; [17]): 13%; half-life (in vivo [4]; cynomolgus monkey, in vivo, po, 10 mg/kg, Apparent T1/2, nilotinib, oral 10 mg/kg in Avicel/HPMC, Cynomolgus monkeys, mean ± SD): 5.2 h; T1/2 (in vivo [4]; nilotinib, IV 10 mg/kg, Cynomolgus monkeys, mean ± SD): 7.79 ± 0.71 h; Apparent T1/2 (in vivo [4]; nilotinib, oral 10 mg/kg in Avicel/HPMC, Cynomolgus monkeys, mean ± SD): 5.16 ± 0.52 h; Tolerability in multi-dose studies ([5]; nilotinib/NMP (20 mg/ml) in PEG 300 (1:10), oral, weight loss, severe diarrhea, elevated liver enzymes also in vehicle-treated animals, data not shown): not tolerated; Tolerability in multiple dose PK studies ([5]; oral suspension of Avicel-RC 591 and HPMC): tolerable; Deviation of predicted peak and trough levels on Days 1 and 7 from reported levels [6]: ≤ 25%; Protein binding (plasma protein): greater than 97%; Solubility in an acidic environment ([7]; acidic environment): soluble; Solubility at pH above 4.5 ([7]; pH above 4.5): poorly soluble; Water solubility [7]: low; Biopharmaceutics Classification System class [8]: class II/IV; Permeability [8]: poor to moderate
